One experiment has as its target rat orexin 1 receptor (Rattus norvegicus, UniProt P56718). The experiment in a line: Rat orexin 1 receptor radioligand binding. The following applies: HEK293 cells stably expressing rat orexin 1 receptor; apparent Ki; read-out: rOX1 Ki. The method, boiled down: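 Homogenized cell suspensions competed against 4 nM final of a tritiated oxadiazolyl-pyrrolidinyl thiazole methanone radioligand (35.3 Ci/mmol) in PBS, with DMSO ≤0.1%. Nonspecific binding defined with 10 μM almorexant; after washing and drying, bound radioactivity counted by scintillation.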

In a further experiment the target is human orexin 1 receptor (Homo sapiens, UniProt O43613). Briefly: Human orexin 1 receptor radioligand binding. The following applies: CHO cells stably expressing human orexin 1 receptor; apparent Ki; read-out: hOX1 Ki. The method, boiled down:
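Homogenized CHO cells stably expressing human orexin 1 receptor, in PBS. They were incubated 60 min at room temperature with 4 nM final tritiated thiazolyl-pyrrolidinyl-methanone radioligand, DMSO ≤0.1%. Nonspecific binding taken with 10 μM almorexant; bound radioactivity collected by GF/C filtration and scintillation-counted.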

For the next experiment, the target named is human orexin 2 receptor (Homo sapiens (Human), UniProt O43614). The experiment in a line: Human orexin 2 receptor radioligand binding ([3H]-EMPA). Particulars: HEK293 stably expressing human orexin 2 receptor; [3H]-EMPA; apparent Ki; read-out: hOX2 Ki. The method, boiled down: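 Competition binding with 2 nM final [3H]-EMPA in PBS against homogenized whole-cell suspension; DMSO ≤0.1%. Nonspecific binding defined with […] almorexant. Plates washed with PBS, dried, and bound radioactivity counted by scintillation.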

Molecules are shown by their SMILES.

human orexin 2 receptor, sequence (O43614 whole entry): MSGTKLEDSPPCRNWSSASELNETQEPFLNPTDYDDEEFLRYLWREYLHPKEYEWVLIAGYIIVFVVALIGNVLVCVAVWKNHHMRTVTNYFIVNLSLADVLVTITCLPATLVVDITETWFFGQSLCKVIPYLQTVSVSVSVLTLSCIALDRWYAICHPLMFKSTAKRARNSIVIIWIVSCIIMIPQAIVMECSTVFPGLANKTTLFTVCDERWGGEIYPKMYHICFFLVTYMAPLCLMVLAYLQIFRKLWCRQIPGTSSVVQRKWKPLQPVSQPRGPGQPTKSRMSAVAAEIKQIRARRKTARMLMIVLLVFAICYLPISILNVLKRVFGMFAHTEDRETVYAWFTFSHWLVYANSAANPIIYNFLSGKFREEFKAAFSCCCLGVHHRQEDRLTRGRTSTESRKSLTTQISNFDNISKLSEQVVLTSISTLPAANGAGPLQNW

Turning to `C[C@H]1[C@H](Nc2cnc(C(F)(F)F)cn2)CCCN1C(=O)c1cc(F)ccc1-n1nccn1` [Example 90, (5-fluoro-2-(2H-1,2,3-triazol-2-yl)phenyl)((2S,3R)-2-methyl-3-((5-(trifluoromethyl)pyrazin-2-yl)amino)piperidin-1-yl)methanone], the Ki on rat orexin 1 receptor was 20 nM; at human orexin 1 receptor, 19 nM; at human orexin 2 receptor, 486 nM.

`Cc1cnc(C(=O)N2CCC[C@@H](Nc3ccc(Cl)cn3)[C@@H]2C)c(-c2ncco2)c1` [Example 77, ((2S,3R)-3-((5-chloropyridin-2-yl)amino)-2-methylpiperidin-1-yl)(5-methyl-3-(oxazol-2-yl)pyridin-2-yl)methanone]: the Ki at rat orexin 1 receptor came out at 36 nM; on human orexin 1 receptor it was 55 nM; at human orexin 2 receptor it was 4020 nM.

As for `Cc1cnc(C(=O)N2CCC[C@@H](Nc3cnc(Cl)cn3)[C@@H]2C)c(-c2ncco2)c1` [Example 86, ((2S,3R)-3-((5-chloropyrazin-2-yl)amino)-2-methylpiperidin-1-yl)(5-methyl-3-(oxazol-2-yl)pyridin-2-yl)methanone], the Ki at rat orexin 1 receptor was 213 nM; at human orexin 1 receptor, 249 nM; on human orexin 2 receptor, greater than 10000 nM.

For `Cc1cnc(C(=O)N2CCC[C@@H](Nc3ccc(Br)cn3)[C@@H]2C)c(-n2nccn2)c1` [Example 92, ((2S,3R)-3-((5-bromopyridin-2-yl)amino)-2-methylpiperidin-1-yl)(5-methyl-3-(2H-1,2,3-triazol-2-yl)pyridin-2-yl)methanone], the Ki came out at 19 nM on rat orexin 1 receptor, 18 nM at human orexin 1 receptor and 4200 nM at human orexin 2 receptor.

`Cc1cnc(C(=O)N2CCC[C@@H](Oc3ncc(C(F)(F)F)cn3)[C@@H]2C)c(-n2nccn2)c1` [Example 101, ((2S,3R)-2-methyl-3-((5-(trifluoromethyl)pyrimidin-2-yl)oxy)piperidin-1-yl)(5-methyl-3-(2H-1,2,3-triazol-2-yl)pyridin-2-yl)methanone]: the Ki at rat orexin 1 receptor was 215 nM; at human orexin 1 receptor, 446 nM; on human orexin 2 receptor it was greater than 10000 nM.

`Cc1ccc(C(=O)N2CCC[C@@H](Nc3ccc(C(F)(F)F)cn3)[C@@H]2C)c(-n2ccnn2)n1` [Example 93, (6-methyl-2-(1H-1,2,3-triazol-1-yl)pyridin-3-yl)((2S,3R)-2-methyl-3-((5-(trifluoromethyl)pyridin-2-yl)amino)piperidin-1-yl)methanone]: the Ki on rat orexin 1 receptor was 52 nM; at human orexin 1 receptor, 38 nM; at human orexin 2 receptor it was 2700 nM.

For the compound `COc1ccc(C(=O)N2CCC[C@@H](Nc3cnc(C(F)(F)F)cn3)[C@@H]2C)c(-n2nccn2)c1` [Example 82, (4-methoxy-2-(2H-1,2,3-triazol-2-yl)phenyl)((2S,3R)-2-methyl-3-((5-(trifluoromethyl)pyrazin-2-yl)amino)piperidin-1-yl)methanone], the Ki turned out to be 53 nM at rat orexin 1 receptor, 58 nM on human orexin 1 receptor and 6400 nM on human orexin 2 receptor.

As for `Cc1ccc(C(=O)N2CCC[C@@H](Nc3cnc(C(F)(F)F)cn3)[C@@H]2C)c(-n2ccnn2)n1` [Example 96, (6-methyl-2-(1H-1,2,3-triazol-1-yl)pyridin-3-yl)((2S,3R)-2-methyl-3-((5-(trifluoromethyl)pyrazin-2-yl)amino)piperidin-1-yl)methanone], the Ki amounted to 81 nM on rat orexin 1 receptor, 47 nM on human orexin 1 receptor and 3900 nM at human orexin 2 receptor.

Regarding `Cc1ccc(-c2ncccn2)c(C(=O)N2CCC[C@@H](Nc3nc4ccccc4o3)[C@@H]2C)n1` [Example 81, ((2S,3R)-3-(benzo[d]oxazol-2-ylamino)-2-methylpiperidin-1-yl)(6-methyl-3-(pyrimidin-2-yl)pyridin-2-yl)methanone], the Ki came out at 14 nM on rat orexin 1 receptor, 23 nM at human orexin 1 receptor and 100 nM on human orexin 2 receptor.

With `Cc1ccc(C(=O)N2CCC[C@@H](Nc3ncc(Cl)cn3)[C@@H]2C)c(-n2nccn2)c1` [Example 91, ((2S,3R)-3-((5-chloropyrimidin-2-yl)amino)-2-methylpiperidin-1-yl)(4-methyl-2-(2H-1,2,3-triazol-2-yl)phenyl)methanone], the results for the Ki on rat orexin 1 receptor, on human orexin 1 receptor and on human orexin 2 receptor were 32 nM, 48 nM and 2100 nM, respectively.
